Measurements reported in publication PMC9403976, “Elucidating the path to Plasmodium prolyl-tRNA synthetase inhibitors that overcome halofuginone resistance” (Nature Communications, 2022).
Values joined by “and” are separate entries in the source; they are usually repeats but may differ in a detail not shown here. Equal entries are not always repeated. Where two headings read alike, the source gives them in different places.

How the values were obtained:
[1] = molecular target: T1, PfcProRS (Plasmodium falciparum, UniProt Q8I5R7); format: binding; details: single replicates
T1 construct: made in house; host or cells: E. coli SoluBL-21

[2] = molecular target: HsProRS (Homo sapiens, UniProt P07814); assay: TR-FRET ligand displacement assay with tracer MAT379 (CoraFluor-1-Halo and anti-His6 antibody formats); format: binding; parameters: made in house; host or cells: E. coli SoluBL-21; details: for TR-FRET dose-response, normalized signal (SI Fig 11): individual replicates
[3] = tested on: P. falciparum Dd2-2D4; assay: P. falciparum asexual blood stage (ABS) growth assay, SYBR Green, 72 h, wild-type parasites; format: cell-based, Plasmodium falciparum; details: Plasmodium falciparum, DD2; SI Fig 16b; values on -log scale; read-out: ABS - Dd2-2D4 (converted)

Chain of HsProRS (P07814 996-1512): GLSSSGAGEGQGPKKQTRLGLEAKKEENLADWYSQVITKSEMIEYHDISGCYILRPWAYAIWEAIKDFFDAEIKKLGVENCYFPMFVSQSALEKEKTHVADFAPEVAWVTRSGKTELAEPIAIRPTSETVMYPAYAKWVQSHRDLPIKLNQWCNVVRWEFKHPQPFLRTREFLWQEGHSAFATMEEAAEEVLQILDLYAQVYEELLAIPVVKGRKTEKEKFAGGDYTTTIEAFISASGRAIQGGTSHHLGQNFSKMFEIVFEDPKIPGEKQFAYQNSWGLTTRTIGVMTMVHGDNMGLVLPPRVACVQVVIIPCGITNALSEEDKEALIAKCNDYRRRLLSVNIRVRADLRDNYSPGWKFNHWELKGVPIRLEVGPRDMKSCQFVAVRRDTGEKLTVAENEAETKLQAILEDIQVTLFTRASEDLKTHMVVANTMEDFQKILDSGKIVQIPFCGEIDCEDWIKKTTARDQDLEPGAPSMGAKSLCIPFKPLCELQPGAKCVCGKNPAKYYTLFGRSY
T1 sequence (Q8I5R7 249-746): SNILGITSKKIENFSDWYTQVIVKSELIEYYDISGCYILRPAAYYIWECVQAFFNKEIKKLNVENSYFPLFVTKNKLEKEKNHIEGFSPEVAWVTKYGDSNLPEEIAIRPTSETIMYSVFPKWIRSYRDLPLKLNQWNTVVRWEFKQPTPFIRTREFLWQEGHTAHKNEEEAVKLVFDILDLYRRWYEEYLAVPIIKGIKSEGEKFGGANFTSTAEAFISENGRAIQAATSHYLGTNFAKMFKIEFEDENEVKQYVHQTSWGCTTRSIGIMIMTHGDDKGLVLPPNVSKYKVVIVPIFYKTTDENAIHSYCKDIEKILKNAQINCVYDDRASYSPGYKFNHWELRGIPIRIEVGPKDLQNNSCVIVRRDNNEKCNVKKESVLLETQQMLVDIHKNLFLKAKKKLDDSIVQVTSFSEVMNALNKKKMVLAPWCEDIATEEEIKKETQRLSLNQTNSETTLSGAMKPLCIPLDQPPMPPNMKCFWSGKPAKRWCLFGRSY

How did the “dose-response signal (normalized), SI Fig 8” value ([1]; Log[inhibitor] (M) -5.000) turn out when `NC(=O)Nc1nccnc1C(=O)NC1Cc2ccccc2C1` [compound 23] was run?
The value was 9.53E-01 and 9.58E-01 and 9.22E-01.

What about the “dose-response signal (normalized), SI Fig 8” value ([1]; Log[inhibitor] (M) -5.301) of the same compound?
Its value is 9.58E-01 and 1.12E+00 and 1.10E+00.

What about the “dose-response signal (normalized), SI Fig 8” value ([1]; Log[inhibitor] (M) -5.601) of the same compound?
Its value is 1.05E+00 and 1.01E+00 and 9.67E-01.

And the “dose-response signal (normalized), SI Fig 8” value ([1]; Log[inhibitor] (M) -5.904)?
Its value is 9.75E-01 and 1.01E+00 and 9.11E-01.

And the “dose-response signal (normalized), SI Fig 8” value ([1]; Log[inhibitor] (M) -6.208)?
The value was 1.13E+00 and 1.21E+00 and 1.04E+00.

What about the “dose-response signal (normalized), SI Fig 8” value ([1]; Log[inhibitor] (M) -6.509) of the same compound?
The value was 1.02E+00 and 1.09E+00 and 1.04E+00.

And the “dose-response signal (normalized), SI Fig 8” value ([1]; Log[inhibitor] (M) -6.796)?
The value was 1.08E+00 and 1.02E+00 and 1.06E+00.

What about the “dose-response signal (normalized), SI Fig 8” value ([1]; Log[inhibitor] (M) -7.108) of the same compound?
Its value is 9.85E-01 and 1.02E+00 and 9.97E-01.

And the “dose-response signal (normalized), SI Fig 8” value ([1]; Log[inhibitor] (M) -7.409)?
The value was 9.53E-01 and 1.06E+00 and 1.07E+00.

What about the “dose-response signal (normalized), SI Fig 8” value ([1]; Log[inhibitor] (M) -7.710) of the same compound?
Its value is 9.44E-01 and 1.06E+00 and 1.08E+00.

And the “dose-response signal (normalized), SI Fig 8” value ([1]; Log[inhibitor] (M) -8.000)?
The value was 9.87E-01 and 9.72E-01 and 1.16E+00.

What about the “dose-response signal (normalized), SI Fig 8” value ([1]; Log[inhibitor] (M) -8.301) of the same compound?
The value was 1.10E+00 and 1.12E+00 and 1.02E+00.

And the “dose-response signal (normalized), SI Fig 8” value ([1]; Log[inhibitor] (M) -8.602)?
Its value is 9.87E-01 and 1.09E+00 and 1.12E+00.

And the “dose-response signal (normalized), SI Fig 8” value ([1]; Log[inhibitor] (M) -9.000)?
Its value is 1.08E+00 and 9.51E-01 and 1.17E+00.

And the “dose-response signal (normalized), SI Fig 8” value ([1]; Log[inhibitor] (M) -9.301)?
The value was 9.82E-01 and 1.20E+00 and 1.04E+00.

What about the IC50 [2] of the same compound?
The IC50 was greater than 10 µM.

And the “HsProRS % signal at 10 μM, + 100 μM proline” value ([2]; + 100 μM proline, 10 μM)?
Its value is 78.4%.

What about the “normalized TR-FRET ligand displacement signal, dose-response replicates (SI Fig 6)” value ([2]; Log[inhibitor] (M) -5.000) of the same compound?
Its value is 9.23E-01 and 9.68E-01 and 8.88E-01.

What about the “TR-FRET dose-response, normalized signal (SI Fig 11)” value ([2]; Log[inhibitor] (M) -5.000) of the same compound?
Its value is 8.87E-01 and 8.66E-01 and 9.17E-01.

And the “normalized TR-FRET ligand displacement signal, dose-response replicates (SI Fig 6)” value ([2]; Log[inhibitor] (M) -5.301)?
The value was 9.33E-01 (2×) and 1.11E+00.

And the “TR-FRET dose-response, normalized signal (SI Fig 11)” value ([2]; Log[inhibitor] (M) -5.301)?
Its value is 9.05E-01 and 8.98E-01 and 9.19E-01.

And the “normalized TR-FRET ligand displacement signal, dose-response replicates (SI Fig 6)” value ([2]; Log[inhibitor] (M) -5.601)?
The value was 9.64E-01 and 1.03E+00 and 9.59E-01.

And the “TR-FRET dose-response, normalized signal (SI Fig 11)” value ([2]; Log[inhibitor] (M) -5.601)?
The value was 9.98E-01 and 9.77E-01 and 1.05E+00.

And the “normalized TR-FRET ligand displacement signal, dose-response replicates (SI Fig 6)” value ([2]; Log[inhibitor] (M) -5.904)?
Its value is 1.09E+00 and 1.01E+00 and 9.81E-01.

And the “TR-FRET dose-response, normalized signal (SI Fig 11)” value ([2]; Log[inhibitor] (M) -5.904)?
Its value is 1.00E+00 and 9.89E-01 and 1.01E+00.

What about the “normalized TR-FRET ligand displacement signal, dose-response replicates (SI Fig 6)” value ([2]; Log[inhibitor] (M) -6.208) of the same compound?
Its value is 9.87E-01 and 1.09E+00 and 1.03E+00.

And the “TR-FRET dose-response, normalized signal (SI Fig 11)” value ([2]; Log[inhibitor] (M) -6.208)?
Its value is 9.53E-01 and 1.02E+00 and 9.38E-01.

And the “normalized TR-FRET ligand displacement signal, dose-response replicates (SI Fig 6)” value ([2]; Log[inhibitor] (M) -6.509)?
Its value is 9.55E-01 and 1.02E+00 and 8.65E-01.

And the “TR-FRET dose-response, normalized signal (SI Fig 11)” value ([2]; Log[inhibitor] (M) -6.509)?
The value was 1.01E+00 and 1.02E+00 and 9.66E-01.

What about the “normalized TR-FRET ligand displacement signal, dose-response replicates (SI Fig 6)” value ([2]; Log[inhibitor] (M) -6.796) of the same compound?
Its value is 1.06E+00 and 9.70E-01 and 9.00E-01.

What about the “TR-FRET dose-response, normalized signal (SI Fig 11)” value ([2]; Log[inhibitor] (M) -6.796) of the same compound?
The value was 1.06E+00 and 1.02E+00 and 1.01E+00.

And the “normalized TR-FRET ligand displacement signal, dose-response replicates (SI Fig 6)” value ([2]; Log[inhibitor] (M) -7.108)?
The value was 9.62E-01 and 9.53E-01 and 1.03E+00.

What about the “TR-FRET dose-response, normalized signal (SI Fig 11)” value ([2]; Log[inhibitor] (M) -7.108) of the same compound?
Its value is 9.79E-01 and 1.00E+00 and 1.02E+00.

And the “normalized TR-FRET ligand displacement signal, dose-response replicates (SI Fig 6)” value ([2]; Log[inhibitor] (M) -7.409)?
Its value is 9.73E-01 and 9.58E-01 and 1.07E+00.

And the “TR-FRET dose-response, normalized signal (SI Fig 11)” value ([2]; Log[inhibitor] (M) -7.409)?
Its value is 1.02E+00 (2×) and 1.04E+00.

And the “normalized TR-FRET ligand displacement signal, dose-response replicates (SI Fig 6)” value ([2]; Log[inhibitor] (M) -7.710)?
The value was 1.04E+00 and 9.48E-01 and 1.10E+00.

What about the “TR-FRET dose-response, normalized signal (SI Fig 11)” value ([2]; Log[inhibitor] (M) -7.710) of the same compound?
The value was 1.01E+00 and 1.04E+00 and 9.76E-01.

What about the “normalized TR-FRET ligand displacement signal, dose-response replicates (SI Fig 6)” value ([2]; Log[inhibitor] (M) -8.000) of the same compound?
The value was 1.00E+00 (2×) and 1.06E+00.

And the “TR-FRET dose-response, normalized signal (SI Fig 11)” value ([2]; Log[inhibitor] (M) -8.000)?
The value was 9.60E-01 and 1.00E+00 (2×).

What about the “normalized TR-FRET ligand displacement signal, dose-response replicates (SI Fig 6)” value ([2]; Log[inhibitor] (M) -8.301) of the same compound?
Its value is 9.32E-01 and 1.07E+00 and 9.64E-01.

What about the “TR-FRET dose-response, normalized signal (SI Fig 11)” value ([2]; Log[inhibitor] (M) -8.301) of the same compound?
The value was 1.00E+00 and 9.88E-01 and 1.08E+00.

What about the “normalized TR-FRET ligand displacement signal, dose-response replicates (SI Fig 6)” value ([2]; Log[inhibitor] (M) -8.602) of the same compound?
The value was 1.06E+00 and 1.00E+00 and 1.07E+00.

What about the “TR-FRET dose-response, normalized signal (SI Fig 11)” value ([2]; Log[inhibitor] (M) -8.602) of the same compound?
The value was 1.00E+00 and 1.01E+00 and 9.76E-01.

And the “normalized TR-FRET ligand displacement signal, dose-response replicates (SI Fig 6)” value ([2]; Log[inhibitor] (M) -9.000)?
Its value is 1.03E+00 (2×) and 9.79E-01.

What about the “TR-FRET dose-response, normalized signal (SI Fig 11)” value ([2]; Log[inhibitor] (M) -9.000) of the same compound?
The value was 1.00E+00 and 9.57E-01 and 9.73E-01.

What about the “normalized TR-FRET ligand displacement signal, dose-response replicates (SI Fig 6)” value ([2]; Log[inhibitor] (M) -9.301) of the same compound?
The value was 1.02E+00 (2×) and 9.65E-01.

What about the “TR-FRET dose-response, normalized signal (SI Fig 11)” value ([2]; Log[inhibitor] (M) -9.301) of the same compound?
Its value is 9.83E-01 and 9.76E-01 and 9.75E-01.

What about the “HsProRS % signal at 10 μM” value ([2]; no added proline/ATP (-), 10 μM) of the same compound?
The value was 89.0%.

And the IC50 ([2]; read-out: HsProRS IC50 + 100 μM proline, + 100 μM proline)?
Its IC50 is greater than 10 µM.

What about the EC50 [3] of the same compound?
The EC50 was 12.1 µM.
